Measured values as given in patent US20030100769A1, “Cyclic amidine compounds” (priority 2000, published 2003).

Target: T1, human α4β2 subtype of nicotinic acetylcholine receptors (Homo sapiens, UniProt P17787+P43681)
T1 construct: expressed in transfected cells; host or cells: Xenopus laevis oocytes injected with hnACh-R α4 and β2 cRNA (pSP64 polyA)
Test: Agonist activities at human α4β2 subtype of nicotinic acetylcholine receptors expressed in Xenopus oocytes (membrane potential holding method)
Type: cell-based
Details: for EC50: held at −50 mV, calculated in comparison with the reaction with 10 μM acetylcholine (100%), read-out: Agonist activity (ED50)
Method: The agonist effect in human α4β2 subtype of nicotinic acetylcholine receptors are examined by using human nicotinic acetylcholine receptors prepared in oocytes of Xenopus laevis, which is injected with cRNA from the corresponding cloning cDNA of human α4 and β2 subunits of nicotinic acetylcholine receptors, and to measure the expression of the electric response by adding the test compounds to perfusion solution by means of membrane potential holding method.
Agonist Activities at Human α4β2 Subtype of Nicotinic Acetylcholine Receptors
(1) Preparation of cRNA of Human α4β2 Subtype of Nicotinic Acetylcholine Receptors
The obtained hnACh-R α4 cDNA and hnACh-R β2 cDNA were inserted to the cRNA expression vector (pSP64 polyA) having SP6 RNA promoter to construct hnACh-R α4/pSP64 polyA and hnACh-R β2/pSP64 polyA, respectively. After cutting from expression vector by restriction enzyme (EcoRI), transcription was performed by affecting SP6 RNA polymerase in the presence of cap analogues to obtain hnACh-R α4 cRNA and hnACh-R β2 cRNA, respectively.
(2) Expression of Human α4β2 Subtype Nicotinic Acetylcholine Receptors in Xenopus Oocytes
Oocytes were purchased from Kitanihonseibutsukyohzai Co., Ltd., which were already enucleated from Xenopus laevis, and used in this experiment.
The oocytes were treated with collagenase (Sigma type I; 1 mg/ml) in calcium-free modified Birth's solution (88 mM of NaCl, 1 mM of KCl, 2.4 mM of NaHCO3, 0.82 mM of MgSO4, 15 mM of HEPES, pH 7.6) under gently stirring at room temperature for 90 minutes, and washed out the enzyme from the tissue. Then, oocytes were separated from ovarian follicle by tweezers, and isolated oocytes were placed in antibiotics containing modified Birth's solution (88 mM of NaCl, 1 mM of KCl, 2.4 mM of NaHCO3, 0.82 mM of MgSO4, 15 mM of HEPES, pH 7.6, and 0.1 v/v % of mixture solution containing of penicillin and streptomycin for incubation; Sigma Co.). […] In oocytes, heterogeneous quintuple [(α4)2(β2)3] was composed by translation of injected cRNAs, and ion channel receptors were constructed on cell membrane.
(3) Agonist Activities at Human α4β2 Subtype of Nicotinic Acetylcholine Receptors
The recordings of responses at human α4β2 subtype of nicotinic acetylcholine receptors by means of membrane potential holding method were performed as follow. […] Test compounds were added to the perfusion solution, and recorded the peak strength of induced inward current. In order to normalize the responses of test compounds, the responses with acetylcholine (Ach) were recorded before and after application of the test compounds. Generally in the oocytes just after isolated, the response of intrinsic muscarinic acetylcholine receptors, which is inward current caused by activation of calcium dependence chloride ion channels with increase of the intracellular calcium concentration by stimulation of receptors, is observed. […] Therefore, the responses observed in oocytes with injection of hnACh-R α4 cRNA and hnACh-R β2 cRNA, i.e., the inward current induced by the intracellular influx of sodium ion according to the stimulation of receptors, would be the freshly observed responses of human α4β2 subtype nicotinic acetylcholine receptors.

T1 sequence (P43681 29-627 limits assumed): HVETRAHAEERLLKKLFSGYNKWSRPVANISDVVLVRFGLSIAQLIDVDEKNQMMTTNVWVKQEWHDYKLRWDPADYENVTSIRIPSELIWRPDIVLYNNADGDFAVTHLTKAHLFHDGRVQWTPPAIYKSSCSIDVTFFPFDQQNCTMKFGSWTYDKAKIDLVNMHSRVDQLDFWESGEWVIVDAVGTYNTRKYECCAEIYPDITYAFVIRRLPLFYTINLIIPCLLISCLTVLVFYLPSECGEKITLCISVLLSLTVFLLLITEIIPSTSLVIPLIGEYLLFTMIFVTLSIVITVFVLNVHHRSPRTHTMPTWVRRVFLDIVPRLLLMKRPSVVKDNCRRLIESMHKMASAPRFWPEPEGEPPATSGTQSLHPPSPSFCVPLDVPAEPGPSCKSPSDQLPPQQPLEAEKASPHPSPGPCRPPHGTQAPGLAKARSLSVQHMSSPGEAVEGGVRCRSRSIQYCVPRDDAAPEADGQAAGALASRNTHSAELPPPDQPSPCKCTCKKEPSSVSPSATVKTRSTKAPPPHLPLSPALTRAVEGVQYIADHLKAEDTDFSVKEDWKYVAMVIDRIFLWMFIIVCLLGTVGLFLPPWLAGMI
T1 sequence (P17787 26-502): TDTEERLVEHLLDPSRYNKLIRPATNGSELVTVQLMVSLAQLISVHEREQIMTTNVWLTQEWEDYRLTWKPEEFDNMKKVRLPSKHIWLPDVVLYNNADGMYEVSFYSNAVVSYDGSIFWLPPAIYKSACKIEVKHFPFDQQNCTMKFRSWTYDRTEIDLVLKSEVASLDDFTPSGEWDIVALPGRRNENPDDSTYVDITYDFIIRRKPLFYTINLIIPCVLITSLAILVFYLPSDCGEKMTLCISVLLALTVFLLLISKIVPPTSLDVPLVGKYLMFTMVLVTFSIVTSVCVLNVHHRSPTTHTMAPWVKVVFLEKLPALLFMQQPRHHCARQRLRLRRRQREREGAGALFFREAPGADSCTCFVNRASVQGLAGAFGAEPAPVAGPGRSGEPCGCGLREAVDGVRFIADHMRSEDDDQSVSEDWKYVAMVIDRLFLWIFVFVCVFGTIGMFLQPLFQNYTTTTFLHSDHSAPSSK

| Compound | EC50 [µM] | Agonist activity: control % by response at 100 μM of the test compound (100 μM test compound, relative to 10 μM acetylcholine (100%)) |
| --- | --- | --- |
| Clc1ccc(C2=NCCCN2)cn1 [Compound 2, 2-(6-chloro-3-pyridyl)-1,4,5,6-tetrahydropyrimidine] | 3.4 | – |
| CN1CCN=C1c1ccc(Cl)nc1 [Compound 3, 2-(6-chloro-3-pyridyl)-1-methyl-2-imidazoline] | 43.8 | – |
| Clc1ncc(C2=NCCCN2)s1 [Compound 22, 2-(2-chloro-5-thiazolyl)-1,4,5,6-tetrahydropyrimidine] | – | (13.2%) |
